Results published in patent US11692160B2, “Microfluidic chip, three-dimensional channel structure, cell culture method using same, and activity evaluation method of bioactive substance using same” (THE ASAN FOUNDATION, priority 2016, dated 2023).

Legend:
[1] = tested on: lung cancer cells (A549); assay: Evaluation of the pharmacological efficacy of an MMP-1 inhibitor using a microfluidic chip (lung cancer cell travel distance, vascular cell migration area); type: cell-based
Protocol: In order to evaluate the efficacy of an anticancer medicine using a microfluidic chip, lung cancer cells (A549, ATCC) were seeded into a microfluidic chip using the same method as in Example 1. Secondarily, vascular cells were seeded (day 0).

[2] = tested on: pancreatic cancer cells (Mia Paca-2); assay: Evaluation of the pharmacological efficacy of gemcitabine using a microfluidic chip (spread range of cancer cells); type: cell-based
Protocol: In order to evaluate the efficacy of an anticancer medicine using a microfluidic chip, pancreatic cancer cells (Mia Paca-2, ATCC) were seeded into a microfluidic chip using the same method as in Example 2. Secondarily, vascular cells (HUVEC, purchased from ATCC) were seeded. Once the cells were confirmed to be attached (day 0: cell seeding date), gemcitabine (Eli Lilly and Company, USA) was administered 3 days later to measure the spread range of the cancer cells. As shown in FIGS. 20A to 20C, the growth and development of cells were observed from the time of cell seeding (day 0) to the 7th day after the drug treatment (day 3). For observation of the cells, an optical microscope image (EVOS, LifeScience, 100 magnification) and a fluorescence microscope image (EVOS, LifeScience, 100 magnification) were superposed. FIGS. 20B and 20C show the results of observation of the cell development using an optical microscope and a fluorescence microscope. The eight images of FIG. 20B, labeled as normal cultures, were those treated with DMSO at day 3 and observed up to day 7. The eight pictures of FIG. 20C, labeled drug treatment, were those treated with gemcitabine on day 3 and observed up to day 7. FIG. 20A is a graph in which the growth width of the cancer cells was statistically quantified from FIGS. 20B and 20C using an Origin […] […]

[3] = A549 with vascular cells in microfluidic chip, inhibitor given 1 day after seeding, increasing concentration (10 μM, 50 μM, 100 μM)

Row | SMILES | metastatic process of lung cancer cells ([1]; A549 cultured in the cell culture device (microfluidic chip)) | migration area of the vascular cells [1, 3] | travel distance of the lung cancer cells [1, 3] | distribution area of the cancer cells ([2]; Mia Paca-2 co-seeded with HUVEC in microfluidic chip, drug on day 3, observed up to day 7, compared with cells not treated with gemcitabine (DMSO)) | growth of pancreatic cancer cells ([2]; Mia Paca-2 in microfluidic chip, gemcitabine on day 3, observed up to day 7)
1 | CNC(=O)[C@H](Cc1c[nH]c2ccccc12)NC(=O)[C@@H](CC(=O)NO)CC(C)C [MMP-1 inhibitor] | inhibits the metastatic process of lung cancer cells | reduced | gradually reduced | – | –
2 | Nc1ccn([C@@H]2O[C@H](CO)[C@@H](O)C2(F)F)c(=O)n1 [gemcitabine, 4-amino-1-(2-deoxy-2,2-difluoro-β-D-erythro-pentofuranosyl)pyrimidin-2(1H)-on] | – | – | – | decreased | inhibits the growth of pancreatic cancer cells
